According to patent publication US20150031714A1, “METHODS AND COMPOSITIONS FOR PREVENTION OF ALLERGIC REACTION” (Baylor College of Medicine, priority 2013, published 2015):

Experiments:
MEF/GFP-Stat3α cells = test: High-throughput fluorescence microscopy (HTFM) cytoplasmic-to-nuclear translocation of GFP-Stat3α; type: cell-based, murine; conditions: Mus musculus, 0.5 h; Table 4; MEF/GFP-Stat3α, IL-6 200 ng/ml and IL-6sR 250 ng/ml 30 min; read-out: HTM IC50
Protocol: Coverslips were examined by confocal fluorescent microscopy using filters to detect GFP (column one), DAPI (column two) or both (merge; column three). In panel B, MEF-GFP-Stat3 cells were grown in 96-well plates with optical glass bottoms and pretreated with the indicated compound at the indicated concentrations in quadruplicate for 1 hour then stimulated with IL-6 (200 ng/ml) and IL-6sR (250 ng/ml) for 30 minutes. Cells were fixed and the plates were examined by high-throughput microscopy to determine the fluorescence intensity in the nucleus (FLIN) and the % ΔFLINMax was calculated as described in Example 1. Data shown are mean±SD and are representative of 2 or more studies. Best-fit curves were generated based on 4 Parameter Logistic Model/Dose Response One Site/XLfit 4.2, IDBS and were used to calculate IC50 (Table 1).
Confocal and high-throughput fluorescence microscopy. Confocal and highthroughput fluorescence microscopy (HTFM) of MEF/GFP-Stat3α cells were performed as described (Huang et al., 2007). Briefly, for confocal fluorescence microscopy, cells were grown in 6-well plates containing a cover slip. For HTFM, cells were seeded into 96-well CC3 plates at a density of 5,000 cells/well using an automated plating system. Cells were cultured under standard conditions until 85-90% confluent. Cells were pretreated with compound for 1 hour at 37° C. then stimulated with IL-6 (200 ng/ml) and IL-6sR (250 ng/ml) for 30 minutes. […] Plates were analyzed by automated HTFM using the Cell Lab IC Image Cytometer (IC100) platform and CytoshopVersion 2.1 analysis software (Beckman Coulter). Nuclear translocation is quantified by using the fraction localized in the nucleus (FLIN) measurement (Sharp et al., 2006). […]
EXP IIB. High throughput fluorescence microscopy (HTFM), cytoplasm-to-nucleus translocation inhibition assays. […] Plates are analyzed by automated HTFM using the Cell Lab IC Image Cytometer (IC100) platform and CytoshopVersion 2.1 analysis software (Beckman Coulter). […]

[1] = target: T1, Stat3-DNA (hSIE) complexes (Homo sapiens, UniProt P40763); test: Electrophoretic mobility shift assay (EMSA), Stat3:hSIE DNA binding; type: biochemical; conditions: 300 μM, extracts of IL-6-stimulated HepG2 cells
T1 construct: high salt extracts were prepared from HepG2 cells incubated without or with IL-6 (30 ng/ml) for 30 minutes; endogenous in cells; host or cells: HepG2 (IL-6-stimulated), whole-cell high-salt extract
Protocol: Electrophoretic mobility shift assays were performed using whole-cell extracts prepared from HepG2 cells without and with stimulation with IL-6 (30 ng/ml) for 30 min. Protein (20 μg) was incubated with radiolabeled duplex oligonucleotide (hSIE) and DMSO without or with the indicated compounds (300 uM) for 60 minutes at 37° C. then separated by PAGE. The gel was dried and autoradiographed; the portion of the gel corresponding to the Stat3-bound hSIE band is shown. Data shown are representative of 2 studies.
Electrophoretic Mobility Shift Assay (EMSA): EMSA was performed using the hSIE radiolabeled duplex oligonucleotide as a probe as described (Tweardy et al., 1995). Briefly, high salt extracts were prepared from HepG2 cells incubated without or with IL-6 (30 ng/ml) for 30 minutes. Protein concentration was determined by Bradford Assay and 20 ug of extract was incubated with compound (300 uM) for 60 minutes at 37 °C. […] Gels were dried and autoradiographed.
Once in the nucleus, Stat3 dimers bind to specific DNA elements to activate and, in some instances, repress gene transcription. […] Compounds that bind to the phosphopeptide-binding site of Stat3 might be expected to do the same. […]

breast cancer cell lines = test: Apoptosis of breast cancer cell lines with constitutive Stat3 activation; type: cell-based

T1 sequence (P40763 2-770 limits assumed, one chain of several): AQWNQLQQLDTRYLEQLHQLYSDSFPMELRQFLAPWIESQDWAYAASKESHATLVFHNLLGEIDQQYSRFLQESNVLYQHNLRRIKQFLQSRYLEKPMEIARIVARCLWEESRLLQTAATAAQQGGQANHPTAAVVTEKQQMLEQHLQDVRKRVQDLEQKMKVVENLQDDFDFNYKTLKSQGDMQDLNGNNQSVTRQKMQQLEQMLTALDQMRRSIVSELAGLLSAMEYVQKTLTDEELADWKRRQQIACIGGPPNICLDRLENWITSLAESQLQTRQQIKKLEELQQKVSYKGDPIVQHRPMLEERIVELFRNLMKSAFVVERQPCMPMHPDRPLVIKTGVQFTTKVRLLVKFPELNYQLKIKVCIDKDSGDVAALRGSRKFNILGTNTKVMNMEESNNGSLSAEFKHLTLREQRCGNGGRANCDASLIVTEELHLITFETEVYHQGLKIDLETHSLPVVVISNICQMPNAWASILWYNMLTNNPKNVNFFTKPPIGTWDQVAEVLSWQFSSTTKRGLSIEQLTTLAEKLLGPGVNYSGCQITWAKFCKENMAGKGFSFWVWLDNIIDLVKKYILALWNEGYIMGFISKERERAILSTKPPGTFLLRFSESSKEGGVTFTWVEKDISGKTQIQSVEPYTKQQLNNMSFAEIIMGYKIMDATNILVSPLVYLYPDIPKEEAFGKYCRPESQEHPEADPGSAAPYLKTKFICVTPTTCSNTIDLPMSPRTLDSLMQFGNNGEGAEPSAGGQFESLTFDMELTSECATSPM

| Compound | IC50 (MEF/GFP-Stat3α cells) [µM] | Stat3:hSIE band intensity (amount of hSIE shifted) [1] | induction of apoptosis of breast cancer cell lines (breast cancer cell lines) |
| --- | --- | --- | --- |
| O=C(O)c1ccc(C=CC(=O)c2ccc3c(c2)OCCO3)cc1 [Cpd3, 4-[3-(2,3-dihydro-1,4-benzodioxin-6-yl)-3-oxo-1-propen-1-yl]benzoic acid] | 131 | reduced the amount of hSIE shifted by half or greater | induced apoptosis preferentially |
| CCOc1cc(C=C2C(=O)c3ccccc3C2=O)cc(Cl)c1OCc1cccc(C(=O)O)c1 [Cpd3-2, 3-({2-chloro-4-[(1,3-dioxo-1,3-dihydro-2H-inden-2-ylidene)methyl]-6-ethoxyphenoxy}methyl)benzoic acid] | 150 |  |  |
